We go through 14 molecules from PMC5653977 (EMBO Molecular Medicine, 2017).

Structures can show the parent of a compound that is named as a salt. Where two headings read alike, the source gives them in different places.

In experiment [1] the target is T1, ERBB4-PIK3R1 (Homo sapiens, UniProt Q15303).
T1 construct: human full‐length ERBB4‐Cyt1 was fused to the NTEV fragment; expressed in transfected cells; host or cells: PC12 Tet-Off cells (rat)
In words: ERBB4-PIK3R1 split TEV single-culture dose-response assay, EGFld as stimulus. Format: cell-based. As to conditions: for inhibitory effect in the ERBB4-PIK3R1 single-culture assay: PC12 cells, 10 ng/ml EGFld as stimulus. The text has this: For our HTS‐compatible split TEV assay approach, human full‐length ERBB4‐Cyt1 was fused to the NTEV fragment, a TEV protease cleavage site (tevS) and the artificial co‐transcriptional activator Gal4‐VP16 (ERBB4‐NTEV‐tevS‐GV); human PIK3R1 was fused to the CTEV fragment (PIK3R1‐CTEV) (Fig 1A). Upon ERBB4 activation, PIK3R1 is recruited to the receptor resulting in a reconstituted protease activity that cleaves off GV. In turn, released GV translocates to the nucleus and binds to upstream activating sequences (UAS) to activate the transcription of a firefly luciferase reporter gene (Fig 1A). A constitutively expressed Renilla luciferase driven under the control of the human thymidine kinase (TK) promoter was used as control to address off‐target effects related to toxicity.
For one 96‐well plate, 4 × 10^6 PC12 cells were harvested and diluted in 5 ml assay medium (phenol red‐free DMEM (low glucose, Life Technologies), 10% FCS, 5% HS, no antibiotics). The split TEV assay plasmids (2 μg pcDNA3_ERBB4‐NTEV‐tevS‐GV‐2xHA, 2 μg pTag4C_PIK3R1‐CTEV‐2xHA, 2 μg p5xUAS_firefly luciferase, 2 μg pTK_Renilla luciferase, and 0.5 μg pECFP‐C1 for examining transfection efficiency) were diluted in 2.5 ml Opti‐MEM (Life Technologies) and vortexed. In parallel, 20 μl of the transfection reagent Lipofectamine 2000 was diluted in 2.5 ml Opti‐MEM and vortexed.

The subject of experiment [2] is pyramidal neurons of the prefrontal cortex. Put plainly: Spontaneous inhibitory postsynaptic currents (sIPSCs) in acute prefrontal cortex slices. Format: cell-based, mouse. As to conditions: 10 μM, bath application. How it is done:
(§1) 300‐μm‐thick transverse slices comprising the medial prefrontal cortex (mPFC) area were prepared from 7‐ to 8‐week‐old C57Bl/6 mice as described previously (Teng et al, 2013; Agarwal et al, 2014). All recordings were performed in cortical layer V projection neurons. The bath solution consisted of oxygenated artificial cerebrospinal fluid (ACSF) containing NaCl 126 mM, KCl 3 mM, NaH2PO4 1.25 mM, MgSO4 1 mM, NaHCO3 26 mM, CaCl2 2 mM, glucose 10 mM, and the pH 7.2 adjusted with NaOH. Spontaneous GABAergic inhibitory postsynaptic currents (sIPSC) and evoked GABAergic inhibitory postsynaptic currents (eIPSC) were recorded at a holding potential of −70 mV in the presence of 6‐cyano‐7‐nitroquinoxaline‐2,3‐dione (CNQX, 10 μM) and DL‐2‐amino‐5‐phosphonovaleric acid (D‐APV, 50 μM). Glass pipettes were filled with the solution containing: KCl 140 mM, MgCl2 2 mM, CaCl2 1 mM, Na2GTP 0.5 mM, Na2ATP 4 mM, EGTA 10 mM, HEPES 10 mM. Patches with a series resistance of > 25 MΩ, a membrane resistance of < 0.8 GΩ, or leak currents of > 150 pA were excluded. Biphasic rectangular electric pulses (10 ms, 100–300 μA) were applied to layer I of the prelimbic area of mPFC through another glass pipette filled with ACSF. Synaptic currents were acquired at 20 kHz and filtered at 6 kHz, with a Digidata 1440 ADC‐converter coupled to a Multiclamp 700B amplifier (Molecular Devices, USA). Data acquisition was performed using pClamp10 software (Molecular Devices). MiniAnalysis 6.0.9 (Synaptosoft Inc., Decatur, USA) and pClamp10.1 were used for amplitude and frequency analysis of sIPSCs and eIPSCs, respectively. Paired Student's t‐test was used for statistical analysis.

In experiment [3] the target is ERBB4 (Homo sapiens, UniProt Q15303). Put plainly: Western blot of ERBB4 phosphorylation in T-47D cells. As to conditions: 10 ng/ml EGFld, 10 μM compound, 5 min. In general terms: A western blot detects proteins with antibodies after separation by electrophoresis.
Sequence of ERBB4 (Q15303 26-1308): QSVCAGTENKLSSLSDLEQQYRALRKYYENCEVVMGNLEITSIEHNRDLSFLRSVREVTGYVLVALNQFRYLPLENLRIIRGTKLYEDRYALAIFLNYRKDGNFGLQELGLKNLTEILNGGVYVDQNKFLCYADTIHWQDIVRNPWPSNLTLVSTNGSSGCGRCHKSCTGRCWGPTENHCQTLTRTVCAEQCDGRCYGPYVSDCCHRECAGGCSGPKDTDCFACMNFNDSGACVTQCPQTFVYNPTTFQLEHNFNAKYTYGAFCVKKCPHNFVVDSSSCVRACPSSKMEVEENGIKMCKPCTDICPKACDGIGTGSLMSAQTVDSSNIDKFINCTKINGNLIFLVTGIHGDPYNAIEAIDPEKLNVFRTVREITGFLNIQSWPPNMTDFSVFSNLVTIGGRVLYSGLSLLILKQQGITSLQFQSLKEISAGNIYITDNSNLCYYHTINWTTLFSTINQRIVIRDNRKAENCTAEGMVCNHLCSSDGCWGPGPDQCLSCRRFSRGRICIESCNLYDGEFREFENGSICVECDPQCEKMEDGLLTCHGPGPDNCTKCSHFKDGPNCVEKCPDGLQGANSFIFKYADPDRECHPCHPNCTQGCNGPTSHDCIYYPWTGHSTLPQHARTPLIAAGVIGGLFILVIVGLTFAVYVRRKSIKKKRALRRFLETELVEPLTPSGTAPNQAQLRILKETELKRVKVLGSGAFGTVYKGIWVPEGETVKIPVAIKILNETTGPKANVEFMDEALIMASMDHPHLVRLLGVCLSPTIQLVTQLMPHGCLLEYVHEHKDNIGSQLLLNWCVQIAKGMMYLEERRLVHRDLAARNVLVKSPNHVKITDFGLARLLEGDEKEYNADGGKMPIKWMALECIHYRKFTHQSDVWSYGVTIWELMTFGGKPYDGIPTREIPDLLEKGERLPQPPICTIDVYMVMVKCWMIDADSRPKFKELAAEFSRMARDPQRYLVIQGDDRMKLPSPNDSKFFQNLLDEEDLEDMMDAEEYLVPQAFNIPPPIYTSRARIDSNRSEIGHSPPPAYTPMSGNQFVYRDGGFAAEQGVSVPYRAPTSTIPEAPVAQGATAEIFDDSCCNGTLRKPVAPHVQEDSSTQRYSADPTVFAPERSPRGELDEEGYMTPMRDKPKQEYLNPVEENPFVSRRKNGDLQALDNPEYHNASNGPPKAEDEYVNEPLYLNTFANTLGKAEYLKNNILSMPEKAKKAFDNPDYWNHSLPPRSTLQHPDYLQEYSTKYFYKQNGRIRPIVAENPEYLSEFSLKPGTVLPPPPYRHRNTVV
Experiment [4] relates to pyramidal neurons of the prefrontal cortex. In words: Evoked inhibitory postsynaptic currents (eIPSCs) in acute prefrontal cortex slices. The experiment is classed as cell-based, mouse. The conditions noted are these: 5 μM. How it is done:
as §1, with “Data acquisition was performed using pClamp10 software (Molecular Devices). MiniAnalysis 6.0.9 (Synaptosoft Inc., Decatur, USA) and pClamp10.1 were used for amplitude and frequency analysis of sIPSCs and eIPSCs, respectively. Paired Student's t‐test was used for statistical analysis.” left out

For experiment [5], the system named is NRG1-ERBB4 signaling. Put plainly: Nrg1-ERBB4-PIK3R1 split TEV co-culture compound screen of the NIH Clinical Collection. The experiment is classed as cell-based, human.
Setting [6] is: compounds at 10 μM, 24 h, PC12 split TEV assay cells co-cultured with Nrg1-expressing PC12 cells, analysed with cellHTS2.
Where [7] appears, read: compound screen of the NIH Clinical Collection, sheet raw data NCC-003, compounds ranked by Z-score.

T1 sequence (Q15303 26-1308): as above

Take `C[C@]12CCC(=O)C=C1C=C[C@@H]1[C@@H]2CC[C@@]2(C)[C@H]1CC[C@@]21CCC(=O)O1` [canrenone]: the “inhibitory effect in the ERBB4-PIK3R1 single-culture assay” value (“inhibitory effect” below) in experiment [1] is recorded as “None of these compounds showed an inhibitory effect”. In experiment [2], the sIPSC amplitude entry was “no significant effect” and the sIPSC frequency result was “no significant effect”. As for `COC(=O)[C@@H]1CC2=CC(=O)CC[C@]2(C)[C@@]23O[C@@H]2C[C@@]2(C)[C@@H](CC[C@@]24CCC(=O)O4)[C@H]13` [eplerenone], the “inhibitory effect” value in experiment [1] is recorded as “None of these compounds showed an inhibitory effect”.

As to `CS[C@@H]1CC2=CC(=O)CC[C@]2(C)C2CC[C@@]3(C)C(CCC34CCC(=O)O4)C21` (some centres unmarked), in experiment [1], the “inhibitory effect” value was “None of these compounds showed an inhibitory effect”.

“EGFld: soluble biologically active EGF-like domain of NRG1, used as Nrg1 stimulus (Reprokine, RKQ02297)”: the “EC50, ERBB4-PIK3R1 dose-response assay using EGFld as stimulus” value in experiment [1] (PC12 split TEV assay cells, single culture) was 1 ng/mL. Consider `CS(=O)(=O)CCNCc1ccc(-c2ccc3ncnc(Nc4ccc(OCc5cccc(F)c5)c(Cl)c4)c3c2)o1` [lapatinib, Lapatinib ditosylate], for which the “ERBB4 phosphorylation at Tyr1056 and Tyr1284” value in experiment [3] is reported as “completely reverted”. The eIPSC amplitude result in experiment [4] is recorded as “increases”. `CCN(CC)CCNC(=O)c1ccc(N)cc1` [Pronestyl, reference compound] gave a Z-SCORE in experiment [5] (setting [6]) of 0.04. `Cc1ccc(S(=O)(=O)NC(=O)NN2CCCCCC2)cc1` [TOLAZAMIDE, reference compound] registered a Z-SCORE in experiment [5] (setting [6]) of 0.3. As for `CNCC[C@H](Oc1cccc2ccccc12)c1cccs1` [Duloxetine], in experiment [5], the Z-SCORE is -0.82. Take `COc1cccc2c1C(=O)c1c(O)c3c(c(O)c1C2=O)C[C@@](O)(C(=O)CO)C[C@@H]3O[C@H]1C[C@H](N)[C@@H](O)[C@H](C)O1` [EPIRUBICIN HYDROCHLORIDE]: the Z-SCORE entry in experiment [5] (NIH Clinical Collection NCC-003 raw data, compounds ranked by Z-score, 'flagged' given instead of a Z-score) is “flagged”.

In experiment [5] (setting [7]), `O=C(CCCN1CC=C(n2c(=O)[nH]c3ccccc32)CC1)c1ccc(F)cc1` [DROPERIDOL] gave a Z-SCORE of -0.96. As to `C[N+]1(CCC(C(N)=O)(c2ccccc2)c2ccccc2)CCCCC1` [FENPIVERINIUM BROMIDE], in experiment [5] (setting [7]), the Z-SCORE is recorded as -0.58. As to `C[C@@H]1C[C@H]2[C@@H]3CCC4=CC(=O)C=C[C@]4(C)[C@@]3(F)[C@@H](O)C[C@]2(C)[C@H]1C(=O)CO` [DESOXIMETASONE], the Z-SCORE in experiment [5] (setting [7]) is -0.5. In experiment [5] (setting [7]), `NC(=O)N1c2ccccc2CC(=O)c2ccccc21` [Trileptal] yielded a Z-SCORE of 0.62.

The molecule `CO[C@H]1O[C@@H]2O[C@@]3(C)CC[C@H]4[C@H](C)CC[C@@H]([C@H]1C)[C@@]24OO3` had a Z-SCORE in experiment [5] (setting [7]) of -1.01.
